Activity calls are given as the source filed them. The calls are words filed in the database; no cut-off is given here.
target: Epidermal growth factor receptor (Homo sapiens, UniProt P00533, L858R); assay: not given; conditions: not given

Structure (SMILES) | IC50 [nM]
C=CC(=O)Nc1cc(Nc2cc(-c3[nH]c(SC)nc3-c3ccc(F)cc3)ccn2)cc(N2CCOCC2)c1 | < 1
CSc1nc(-c2ccc(F)cc2)c(-c2ccnc(Nc3ccccc3)c2)[nH]1 | 2.5
C=CC(=O)Nc1cccc(Nc2cc(-c3[nH]c(SC)nc3-c3ccc(F)cc3)ccn2)c1 | < 1
CCC(=O)Nc1ccc(OC)c(Nc2cc(-c3[nH]c(SC)nc3-c3ccc(F)cc3)ccn2)c1 | < 1
CCC(=O)Nc1cccc(Nc2cc(-c3[nH]c(SC)nc3-c3ccc(F)cc3)ccn2)c1 | 6.8
C=CC(=O)Nc1ccc(OC)c(Nc2cc(-c3[nH]c(SC)nc3C(C)(C)C)ccn2)c1 | 16
C=CC(=O)Nc1cc(Nc2cc(-c3[nH]c(SC)nc3-c3ccc(F)cc3)ccn2)cc(N2CCN(C)CC2)c1 | < 1
C=CC(=O)Nc1ccc(OC)c(Nc2cc(-c3[nH]c(SC)nc3-c3cccs3)ccn2)c1 | < 1
C=CC(=O)Nc1ccc(OC)c(Nc2cc(-c3cnc(SC)[nH]3)ccn2)c1 | 5.6
C=CC(=O)Nc1ccc(OC)c(Nc2cc(-c3[nH]c(SC)nc3C3CCCC3)ccn2)c1 | < 1

target: Epidermal growth factor receptor (Homo sapiens, UniProt P00533); assay: not given; format: ADME; conditions: not given

Structure (SMILES) | IC50 [nM]
C=CC(=O)Nc1cc(Nc2cc(-c3[nH]c(SC)nc3-c3ccc(F)cc3)ccn2)cc(N2CCOCC2)c1 | < 1
CSc1nc(-c2ccc(F)cc2)c(-c2ccnc(Nc3ccccc3)c2)[nH]1 | 24
C=CC(=O)Nc1cccc(Nc2cc(-c3[nH]c(SC)nc3-c3ccc(F)cc3)ccn2)c1 | < 1
CCC(=O)Nc1ccc(OC)c(Nc2cc(-c3[nH]c(SC)nc3-c3ccc(F)cc3)ccn2)c1 | < 1
CCC(=O)Nc1cccc(Nc2cc(-c3[nH]c(SC)nc3-c3ccc(F)cc3)ccn2)c1 | 22
C=CC(=O)Nc1ccc(OC)c(Nc2cc(-c3[nH]c(SC)nc3C(C)(C)C)ccn2)c1 | 57
C=CC(=O)Nc1cc(Nc2cc(-c3[nH]c(SC)nc3-c3ccc(F)cc3)ccn2)cc(N2CCN(C)CC2)c1 | < 1
C=CC(=O)Nc1ccc(OC)c(Nc2cc(-c3[nH]c(SC)nc3-c3cccs3)ccn2)c1 | < 1
C=CC(=O)Nc1ccc(OC)c(Nc2cc(-c3cnc(SC)[nH]3)ccn2)c1 | 17
C=CC(=O)Nc1ccc(OC)c(Nc2cc(-c3[nH]c(SC)nc3C3CCCC3)ccn2)c1 | < 1

target: Epidermal growth factor receptor (Homo sapiens, UniProt P00533, L858R/T790M); assay: not given; conditions: not given

Structure (SMILES) | IC50 [nM]
C=CC(=O)Nc1cc(Nc2cc(-c3[nH]c(SC)nc3-c3ccc(F)cc3)ccn2)cc(N2CCOCC2)c1 | < 1
CSc1nc(-c2ccc(F)cc2)c(-c2ccnc(Nc3ccccc3)c2)[nH]1 | 130
C=CC(=O)Nc1cccc(Nc2cc(-c3[nH]c(SC)nc3-c3ccc(F)cc3)ccn2)c1 | 3.3
CCC(=O)Nc1ccc(OC)c(Nc2cc(-c3[nH]c(SC)nc3-c3ccc(F)cc3)ccn2)c1 | 5
CCC(=O)Nc1cccc(Nc2cc(-c3[nH]c(SC)nc3-c3ccc(F)cc3)ccn2)c1 | 93
C=CC(=O)Nc1ccc(OC)c(Nc2cc(-c3[nH]c(SC)nc3C(C)(C)C)ccn2)c1 | 485
C=CC(=O)Nc1cc(Nc2cc(-c3[nH]c(SC)nc3-c3ccc(F)cc3)ccn2)cc(N2CCN(C)CC2)c1 | < 1
C=CC(=O)Nc1ccc(OC)c(Nc2cc(-c3[nH]c(SC)nc3-c3cccs3)ccn2)c1 | < 1
C=CC(=O)Nc1ccc(OC)c(Nc2cc(-c3cnc(SC)[nH]3)ccn2)c1 | 8.6
C=CC(=O)Nc1ccc(OC)c(Nc2cc(-c3[nH]c(SC)nc3C3CCCC3)ccn2)c1 | 4.5

system: Epidermal growth factor receptor (Homo sapiens), P00533 [T790M]; assay: Covalent binding affinity to EGFR T790M mutant (unknown origin) at 100 uM after 1 hr by mass spectrometric analysis; conditions: not given

Structure (SMILES) | Activity
C=CC(=O)Nc1cccc(Nc2cc(-c3[nH]c(SC)nc3-c3ccc(F)cc3)ccn2)c1 | Active
CCC(=O)Nc1cccc(Nc2cc(-c3[nH]c(SC)nc3-c3ccc(F)cc3)ccn2)c1 | inactive

system: A-431; assay: cells; format: ADME, cell-based; conditions: Homo sapiens, A-431, 96 h
Description: Antiproliferative activity against human A431 cells harboring wild type EGFR assessed as growth inhibition after 96 hrs by CellTiter-Glo assay

Structure (SMILES) | EC50 [nM]
C=CC(=O)Nc1cc(Nc2cc(-c3[nH]c(SC)nc3-c3ccc(F)cc3)ccn2)cc(N2CCOCC2)c1 | 1500
CSc1nc(-c2ccc(F)cc2)c(-c2ccnc(Nc3ccccc3)c2)[nH]1 | 11000
C=CC(=O)Nc1cccc(Nc2cc(-c3[nH]c(SC)nc3-c3ccc(F)cc3)ccn2)c1 | 1700
CCC(=O)Nc1ccc(OC)c(Nc2cc(-c3[nH]c(SC)nc3-c3ccc(F)cc3)ccn2)c1 | 7700
CCC(=O)Nc1cccc(Nc2cc(-c3[nH]c(SC)nc3-c3ccc(F)cc3)ccn2)c1 | 1500
C=CC(=O)Nc1ccc(OC)c(Nc2cc(-c3[nH]c(SC)nc3C(C)(C)C)ccn2)c1 | 20000
C=CC(=O)Nc1cc(Nc2cc(-c3[nH]c(SC)nc3-c3ccc(F)cc3)ccn2)cc(N2CCN(C)CC2)c1 | 1400
C=CC(=O)Nc1ccc(OC)c(Nc2cc(-c3[nH]c(SC)nc3-c3cccs3)ccn2)c1 | 7400
C=CC(=O)Nc1ccc(OC)c(Nc2cc(-c3cnc(SC)[nH]3)ccn2)c1 | 4100
C=CC(=O)Nc1ccc(OC)c(Nc2cc(-c3[nH]c(SC)nc3C3CCCC3)ccn2)c1 | 7800

system: NCI-H1975; assay: cells; format: functional, cell-based; conditions: Homo sapiens, NCI-H1975, 96 h

Structure (SMILES) | EC50 [nM]
C=CC(=O)Nc1cc(Nc2cc(-c3[nH]c(SC)nc3-c3ccc(F)cc3)ccn2)cc(N2CCOCC2)c1 | 1300
CSc1nc(-c2ccc(F)cc2)c(-c2ccnc(Nc3ccccc3)c2)[nH]1 | 22000
C=CC(=O)Nc1cccc(Nc2cc(-c3[nH]c(SC)nc3-c3ccc(F)cc3)ccn2)c1 | 190
CCC(=O)Nc1ccc(OC)c(Nc2cc(-c3[nH]c(SC)nc3-c3ccc(F)cc3)ccn2)c1 | 4300
CCC(=O)Nc1cccc(Nc2cc(-c3[nH]c(SC)nc3-c3ccc(F)cc3)ccn2)c1 | 2200
C=CC(=O)Nc1ccc(OC)c(Nc2cc(-c3[nH]c(SC)nc3C(C)(C)C)ccn2)c1 | 18000
C=CC(=O)Nc1cc(Nc2cc(-c3[nH]c(SC)nc3-c3ccc(F)cc3)ccn2)cc(N2CCN(C)CC2)c1 | 1100
C=CC(=O)Nc1ccc(OC)c(Nc2cc(-c3[nH]c(SC)nc3-c3cccs3)ccn2)c1 | 84
C=CC(=O)Nc1ccc(OC)c(Nc2cc(-c3cnc(SC)[nH]3)ccn2)c1 | 2000
C=CC(=O)Nc1ccc(OC)c(Nc2cc(-c3[nH]c(SC)nc3C3CCCC3)ccn2)c1 | 1400

target: Epidermal growth factor receptor (Homo sapiens, UniProt P00533, C797S/L858R/T790M); assay: Inhibition of human EGFR T790M/C797S/L858R triple mutant preincubated for 20 mins followed by [33P]ATP addition measured after 2 hrs; conditions: not given

Structure (SMILES) | IC50 [nM]
C=CC(=O)Nc1cc(Nc2cc(-c3[nH]c(SC)nc3-c3ccc(F)cc3)ccn2)cc(N2CCOCC2)c1 | 53
CCC(=O)Nc1ccc(OC)c(Nc2cc(-c3[nH]c(SC)nc3-c3ccc(F)cc3)ccn2)c1 | 167
CCC(=O)Nc1cccc(Nc2cc(-c3[nH]c(SC)nc3-c3ccc(F)cc3)ccn2)c1 | 223
C=CC(=O)Nc1cc(Nc2cc(-c3[nH]c(SC)nc3-c3ccc(F)cc3)ccn2)cc(N2CCN(C)CC2)c1 | 11

system: not listed separately; assay: Drug degradation in human liver microsomes at 100 uM preincubated for 5 mins with NADPH-regenerating system followed by liver microsomes addition measured after 240 mins by LC-MS analysis; format: ADME, microsome; conditions: read-out: Drug degradation

Structure (SMILES) | metabolised at 4 h, 100 µM [%]
C=CC(=O)Nc1cc(Nc2cc(-c3[nH]c(SC)nc3-c3ccc(F)cc3)ccn2)cc(N2CCN(C)CC2)c1 | 27
